Test results published in patent US10316050B2, “PT (IV) complexes containing 4,4′-disubstituted-2,2′-bipyridyl and their use in cancer therapy” (THE BOARD OF REGENTS OF THE NEVADA SYSTEM OF HIGHER …, priority 2014, dated 2019).
Where two headings read alike, the source gives them in different places.

Tests used:
Format in all cases: cell-based, human
[1] = test system: H520 lung cancer cells; experiment: MTS cell viability assay, H520; conditions: read-out: EC50 (effective concentration that resulted in 50% cell viability)
Outline: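 Viability by MTS colorimetry (A490, 4 h incubation) as % of solvent control, after 1 h pulse plus 2-day recovery or 48 h continuous drug exposure.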

[2] = test system: PC-3 prostate cancer cells; experiment: MTS cell viability assay, PC-3; conditions: for EC50: read-out: EC50 (effective concentration that resulted in 50% cell viability)
Outline: (§1)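 SK-BR-3 cells grown in MEM, DU145 and PC-3 cells in RPMI-1640, each with 10% FBS and 25 mM HEPES pH 7.4, plated 2 days to ~50% confluence. Exposure to increasing Pt complex or cisplatin/carboplatin concentrations for 1 h (washed, then 2 days recovery) or 48 h continuous. MTS absorbance at 490 nm after 4 h; viability as percent of control.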

[3] = test system: T-47D breast cancer cells; experiment: MTS cell viability assay, T-47D
Outline: (§2)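 Cells grown in MEM with 10% FBS and 25 mM HEPES (pH 7.4), seeded at 2-3.5×10³/well and grown 2 days to ~50% confluence. Exposed to compounds for 1 h, washed, then 2 days in fresh medium; or 48 h continuous. MTS 4 h, absorbance 490 nm; viability as percent of solvent control.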

[4] = test system: HCC38 breast cancer cells; experiment: MTS cell viability assay, HCC38; conditions: read-out: EC50 (effective concentration that resulted in 50% cell viability)
Outline: as §2

[5] = test system: MCF-7 breast cancer cells; experiment: MTS cell viability assay, MCF-7; conditions: for EC50: read-out: EC50 (effective concentration that resulted in 50% cell viability)
Outline: as §2

[6] = test system: A549 lung cancer cells; experiment: MTS cell viability assay, A549; conditions: for EC50: read-out: EC50 (effective concentration that resulted in 50% cell viability)
Outline: as §2

[7] = test system: SK-BR-3 breast cancer cells; experiment: MTS cell viability assay, SK-BR-3; conditions: for EC50: read-out: EC50 (effective concentration that resulted in 50% cell viability)
Outline: as §1

[8] = test system: ZR-75-1 breast cancer cells; experiment: MTS cell viability assay, ZR-75-1; conditions: read-out: EC50 (effective concentration that resulted in 50% cell viability)
Outline: as §2

[9] = test system: MDA-MB-231 breast cancer cells; experiment: MTS cell viability assay, MDA-MB-231; conditions: read-out: EC50 (effective concentration that resulted in 50% cell viability)
Outline: as §2

[10] = test system: DU145 prostate cancer cells; conditions: for EC50: read-out: EC50 (effective concentration that resulted in 50% cell viability)
Outline: as §1

[11] = 1 h treatment, Table 3, read-out: EC50 (effective concentration that resulted in 50% cell viability)
[12] = 48 h, Table 5, read-out: EC50 (effective concentration that resulted in 50% cell viability)
[13] = SK-BR-3, 1 h treatment, Table 3
[14] = ZR-75-1, 1 h treatment, Table 3
[15] = MDA-MB-231, 1 h treatment, Table 3

Work on `[NH2][Pt]([NH2])([Cl])[Cl]` [CDDP, Cisplatin, reference compound] yielded an EC50 ([1]; H520, 1 h treatment, Table 2) of 200 ± 17 µM, an EC50 ([1]; H520, 1 h treatment, Table 3) of 200 ± 17 µM and an EC50 ([1]; H520, 48 h, Table 5) of 24 ± 2 µM. For the same molecule, the EC50 ([1]; H520, 48 h treatment, Table 4) was 24 ± 2 µM, the EC50 ([2]; PC-3, 1 h treatment, Table 2) was 200 ± 20 µM and the EC50 ([2]; PC-3, 1 h treatment, Table 3) was 200 ± 20 µM. For the same molecule, the EC50 ([2]; PC-3, 48 h, Table 5) was 30 ± 1 µM, the EC50 ([2]; PC-3, 48 h treatment, Table 4) was 30 ± 1 µM and the “anti-proliferative activity compared to cisplatin (in words)” value ([2]; PC-3, one and 48 hours treatment (FIG. 8I)) was “concentration dependent decreased in cell viability”. The EC50 ([3]; 1 h treatment, Table 2, read-out: EC50 (effective concentration that resulted in 50% cell viability)) was 900 ± 100 µM, the EC50 [3, 11] was 900 ± 100 µM and the EC50 [3, 12] was 35 ± 6 µM. It also gave an EC50 ([3]; 48 h treatment, Table 4, read-out: EC50 (effective concentration that resulted in 50% cell viability)) of 35 ± 6 µM, an EC50 ([4]; HCC38, 1 h treatment, Table 2) of 300 ± 30 µM and an EC50 ([4]; HCC38, 1 h treatment, Table 3) of 300 ± 30 µM. For the same molecule, the EC50 ([4]; HCC38, 48 h, Table 5) was 30 ± 8 µM, the EC50 ([4]; HCC38, 48 h treatment, Table 4) was 30 ± 8 µM and the EC50 ([5]; MCF-7, 1 h treatment, Table 2) was 900 ± 60 µM. It also gave an EC50 ([5]; MCF-7, 1 h treatment, Table 3) of 900 ± 100 µM, an EC50 ([5]; MCF-7, 48 h, Table 5) of 34 ± 1 µM and an EC50 ([5]; MCF-7, 48 h treatment, Table 4) of 35 ± 1 µM. It also gave an EC50 ([6]; A549, 1 h treatment, Table 2) of 900 ± 200 µM, an EC50 ([6]; A549, 1 h treatment, Table 3) of 900 ± 200 µM and an EC50 ([6]; A549, 48 h, Table 5) of 500 ± 100 µM. It also gave an EC50 ([6]; A549, 48 h treatment, Table 4) of 500 ± 100 µM, an EC50 ([7]; SK-BR-3, 1 h treatment, Table 2) of 420 ± 80 µM and an EC50 [7, 13] of 420 ± 80 µM. For the same molecule, the EC50 ([7]; SK-BR-3, 48 h, Table 5) was 23 ± 8 µM, the EC50 ([7]; SK-BR-3, 48 h treatment, Table 4) was 23 ± 6 µM and the “anti-proliferative activity compared to cisplatin (in words)” value ([7]; SK-BR-3, one and 48 hours treatment (FIG. 8G)) was “concentration dependent decreased in cell viability”. For the same molecule, the EC50 ([8]; ZR-75-1, 1 h treatment, Table 2) was 260 ± 10 µM, the EC50 [8, 14] was 260 ± 10 µM and the EC50 ([8]; ZR-75-1, 48 h, Table 5) was 30 ± 8 µM. It also gave an EC50 ([8]; ZR-75-1, 48 h treatment, Table 4) of 30 ± 8 µM, an EC50 ([9]; MDA-MB-231, 1 h treatment, Table 2) of 50 ± 4 µM and an EC50 [9, 15] of 50 ± 4 µM. For the same molecule, the EC50 ([9]; MDA-MB-231, 48 h, Table 5) was 21 ± 3 µM, the EC50 ([9]; MDA-MB-231, 48 h treatment, Table 4) was 21 ± 3 µM and the “effect on cell viability (in words)” value ([10]; DU145, 1 hour treatment (FIG. 8A, top), up to 1 mM carboplatin, 100 μM Pt(IV)-1C, 50 μM Pt(IV)-2C) was “concentration dependent decrease in cell viability”. For the same molecule, the EC50 ([10]; DU145, 1 h treatment, Table 2) was 400 ± 100 µM, the EC50 ([10]; DU145, 1 h treatment, Table 3) was 400 ± 100 µM and the EC50 ([10]; DU145, 48 h, Table 5) was 64 ± 8 µM. The EC50 ([10]; DU145, 48 h treatment, Table 4) was 64 ± 8 µM and the “anti-proliferative activity compared to cisplatin (in words)” value ([10]; DU145, one and 48 hours treatment (FIG. 8H)) was “concentration dependent decreased in cell viability”.

For `CC(=O)[O][Pt]([Cl])([Cl])[O]C(C)=O.CCCCCOc1ccnc(-c2cc(OCCCCC)ccn2)c1` [Pt(IV)-5C, [Pt(IV)Cl2(OAc)2(4,4′-dipentoxy-2,2′-bipyridine)]], the EC50 ([1]; H520, 1 h treatment, Table 3) was 3 ± 1 µM, the EC50 ([1]; H520, 48 h, Table 5) was 1 ± 0.3 µM and the EC50 ([2]; PC-3, 1 h treatment, Table 3) was 1.7 ± 0.2 µM. The EC50 ([2]; PC-3, 48 h, Table 5) was 0.5 ± 0.2 µM, the EC50 [3, 11] was 2.3 ± 0.3 µM and the EC50 [3, 12] was 0.248 ± 0.001 µM. It also gave an EC50 ([4]; HCC38, 1 h treatment, Table 3) of 3 ± 1 µM, an EC50 ([4]; HCC38, 48 h, Table 5) of 2.1 ± 0.3 µM and an EC50 ([5]; MCF-7, 1 h treatment, Table 3) of 2.9 ± 0.13 µM. It also gave an EC50 ([5]; MCF-7, 48 h, Table 5) of 2 ± 0.1 µM, an EC50 ([6]; A549, 1 h treatment, Table 3) of 6.6 ± 0.3 µM and an EC50 ([6]; A549, 48 h, Table 5) of 2.2 ± 0.1 µM. The EC50 [7, 13] was 1.3 ± 0.6 µM, the EC50 ([7]; SK-BR-3, 48 h, Table 5) was 0.3 ± 0.03 µM and the EC50 [8, 14] was 1.6 ± 0.1 µM. It also gave an EC50 ([8]; ZR-75-1, 48 h, Table 5) of 0.55 ± 0.07 µM, an EC50 [9, 15] of 1.8 ± 0.1 µM and an EC50 ([9]; MDA-MB-231, 48 h, Table 5) of 0.26 ± 0.01 µM. The EC50 ([10]; DU145, 1 h treatment, Table 3) was 1 ± 1 µM and the EC50 ([10]; DU145, 48 h, Table 5) was 0.34 ± 0.02 µM.

In the case of “[Pt(IV)Cl2(OAc)2(4,4′-dibutoxy-2,2′-bipyridine)] [Pt(IV)-4C]”, the EC50 ([1]; H520, 1 h treatment, Table 3) is reported as 13 ± 5 µM, the EC50 ([1]; H520, 48 h, Table 5) is reported as 2.2 ± 0.1 µM and the EC50 ([2]; PC-3, 1 h treatment, Table 3) is reported as 5 ± 3 µM. It also gave an EC50 ([2]; PC-3, 48 h, Table 5) of 1.1 ± 0.4 µM, an EC50 [3, 11] of 10 ± 1 µM and an EC50 [3, 12] of 0.33 ± 0.07 µM. For the same molecule, the EC50 ([4]; HCC38, 1 h treatment, Table 3) was 17 ± 3 µM, the EC50 ([4]; HCC38, 48 h, Table 5) was 2.1 ± 0.2 µM and the “effect on cell viability (in words)” value ([5]; MCF-7, 1 hour treatment, at the concentrations tested (FIG. 8F)) was “did not have any effect”. For the same molecule, the EC50 ([5]; MCF-7, 1 h treatment, Table 3) was greater than 25 µM, the EC50 ([5]; MCF-7, 48 h, Table 5) was 2.2 ± 0.1 µM and the “effect on cell viability (in words)” value ([6]; A549, 1 hour treatment, at the concentrations tested (FIG. 8E)) was “did not have any effect”. The EC50 ([6]; A549, 1 h treatment, Table 3) was greater than 25 µM, the EC50 ([6]; A549, 48 h, Table 5) was 14 ± 1 µM and the EC50 [7, 13] was 4 ± 0.7 µM. It also gave an EC50 ([7]; SK-BR-3, 48 h, Table 5) of 0.44 ± 0.02 µM, an EC50 [8, 14] of 2.9 ± 0.3 µM and an EC50 ([8]; ZR-75-1, 48 h, Table 5) of 0.7 ± 0.2 µM. For the same molecule, the EC50 [9, 15] was 2.8 ± 0.1 µM, the EC50 ([9]; MDA-MB-231, 48 h, Table 5) was 1 ± 0.2 µM and the EC50 ([10]; DU145, 1 h treatment, Table 3) was 8 ± 7 µM. It also gave an EC50 ([10]; DU145, 48 h, Table 5) of 0.9 ± 0.2 µM.
